PubChem BioAssay AID1996
Values after ≈ are worked out from the molar mass of the structure shown.

conditions: buffer; pH 7.4; 200.0 µM

Compound	solubility kinetic [µg/mL]
COCCNc1nc(N)c([N+](=O)[O-])c(N2CCCCCC2)n1	6.3 (≈ 20.3 µM)
Cc1ccc(S(=O)(=O)N2CCN3CCCC3C2)cc1 (centres undefined)	> 42.1
CC(=O)N1C(=O)NC2=C(C(=O)CCC2)C1c1cccc([N+](=O)[O-])c1 (centres undefined)	> 49.4
CCC(=O)c1ccc(Oc2nc3c(c(=O)n(C)c(=O)n3C)n2CC)cc1	19.6 (≈ 55 µM)
Cc1nn(C)c(C)c1CNC(=O)Nc1ccc2c(c1)OCO2	> 45.3
COc1ccc2c3c([nH]c2c1)C(C)=NCC3	30.6 (≈ 143 µM)
CCCN1C(=O)c2ccc(C(=O)Nc3ccccc3C(=O)O)cc2C1=O	> 52.9
COc1ccc(OC)c(NC(=O)COC(=O)CCc2ccc(S(=O)(=O)N3CCOCC3)cc2)c1	29 (≈ 58.9 µM)
COc1ccc(NCc2nc3ccccc3n2C)cc1	35 (≈ 131 µM)
Cc1ccc(C)c(C(=O)CN2C(=O)NC3(CCCCCCC3)C2=O)c1	2.6 (≈ 7.59 µM)
O=C(Cc1ccc([N+](=O)[O-])cc1)NCc1cccnc1	> 40.7
Cc1ccc(/C=C/C(=O)O)cc1S(=O)(=O)N1CCCCC1	> 46.4
Cc1nc2ccc(NS(=O)(=O)c3ccc(F)cc3)cc2s1	44.3 (≈ 137 µM)
O=C(c1cccnc1)N1N=C2CCCCCC2C1(O)C(F)(F)F (centres undefined)	> 49.1
CC(C)CN(C(=O)c1ccco1)C1CCS(=O)(=O)C1 (centres undefined)	> 42.8
COC(=O)CCc1nc2ccccc2nc1OC	> 36.9
O=C(CN1CCOCC1)Nc1ccc([N+](=O)[O-])cc1Br	7.3 (≈ 21.2 µM)
CC(=O)Oc1ccc2c(=O)c(-c3nc4ccccc4s3)coc2c1	1 (≈ 2.96 µM)
O=C(/C=C/c1ccc(Cl)cc1)Nc1cc(S(=O)(=O)N2CCOCC2)ccc1N1CCOCC1	5.9 (≈ 12 µM)
COc1cccc(C(=O)O/N=C(\N)c2ccccn2)c1	> 40.7

Compound	solubility kinetic [µg/mL]
COc1ccc(NC(=O)c2sccc2-n2cccc2)cc1	3.4 (≈ 11.4 µM)
O=C(O)C1CCCCC1C(=O)NCCc1ccc(F)cc1 (centres undefined)	> 44
CCCCCCC1CC(=O)NC(=O)N1 (centres undefined)	27.8 (≈ 140 µM)
Cc1ccc(S(=O)(=O)N2CCCc3ccccc32)cc1C	2.3 (≈ 7.63 µM)
Cc1ccc(-c2cc(C(=O)NC3CCCCC3)no2)cc1	< 0.3
Cc1nc2ccccc2n1CCc1ccccc1	30.1 (≈ 127 µM)
O=c1[nH]c2ccc(NC(=S)Nc3ccc(F)cc3)cc2[nH]1	> 45.3
Cc1cc(C(=O)c2cnc(/N=C/N(C)C)s2)c(F)cc1Cl	13.6 (≈ 41.7 µM)
COCCn1c(C)cc(C(=O)COC(=O)/C=C/c2ccc(OC)cc2OC)c1C	2.7 (≈ 6.73 µM)
CC(Sc1ncccn1)C(=O)N1CCc2ccccc21 (centres undefined)	33.3 (≈ 117 µM)
CCc1nnc(SC(C)C(=O)Nc2nccs2)n1C (centres undefined)	> 44.6
CCCCc1ccc(NC(=O)Nc2cnccn2)cc1	1.1 (≈ 4.07 µM)
Cc1cc(NC(=O)C(=O)NCc2cccc(Cl)c2)no1	3.2 (≈ 10.9 µM)
Cc1cc(S(=O)(=O)NCc2cccnc2)ccc1F	33.7 (≈ 120 µM)
COc1ccc(NC(=O)c2scc(S(=O)(=O)C(C)C)c2N)cc1	45.5 (≈ 128 µM)
O=CNCc1nc2ccccc2n1CCCc1ccccc1	> 44
Nc1cc(=O)[nH]c(SCC(=O)Nc2cc(S(=O)(=O)N3CCCCCC3)ccc2Cl)n1	5.4 (≈ 11.4 µM)
COCCNc1ncnc2c1nc1n2CCCC1	> 37.1
O=C(CCCc1nc2ccccc2s1)NCc1cccnc1	> 46.7
O=C(/C=C/NCc1cccnc1)c1ccc(-c2ccccc2)cc1	2.8 (≈ 8.91 µM)

Compound	solubility kinetic [µg/mL]
CN1CC(=O)N(CC(=O)Nc2cccc3ccccc23)C1=O	> 44.6
CC(NCC#Cc1ccccc1)C(O)c1ccccc1.Cl (centres undefined)	44.8
O=C(NCCCNC(=O)c1ccccc1)c1ccccc1	> 42.4
CN(CC(=O)Nc1ccccc1)CC(=O)Nc1ccccc1Cl	> 49.8
NS(=O)(=O)c1ccc(CNC(=O)c2ccc(C(=O)c3ccccc3)cc2)cc1	14.6 (≈ 37 µM)
Cc1ccc(N/C=C/C(=O)c2ccco2)c(O)c1	1.4 (≈ 5.76 µM)
Cc1ccsc1C(=O)C1CCCN(Cc2ccc(O)cc2)C1 (centres undefined)	36.8 (≈ 117 µM)
OCCN(CCO)c1nc(N2CCCCC2)c2nc(N(CCO)CCO)nc(N3CCCCC3)c2n1	10.7 (≈ 21.2 µM)
CCOP(=O)(OCC)C(O)c1cccc([N+](=O)[O-])c1 (centres undefined)	39.2 (≈ 136 µM)
O=C(Cc1ccc([N+](=O)[O-])cc1)N1CCN(c2ccc([N+](=O)[O-])cc2)CC1	5.2 (≈ 14 µM)
COc1ccccc1CCN=C(N)NS(=O)(=O)c1ccc(C)c(C)c1	8.3 (≈ 23 µM)
COc1ccc(OC)c(NC(=S)N2c3ccccc3CC2C)c1 (centres undefined)	7.6 (≈ 23.1 µM)
O=C(CN1CCN(c2ccccn2)CC1)Nc1ccc(F)cc1F	> 49.9
O=C(O)CNC(=O)C12CC3CC(CC(Cl)(C3)C1)C2	> 40.8
O=C(COC(=O)COc1ccccc1F)NC1CC1	37 (≈ 138 µM)
CCCNC(=O)c1cc(-c2ccc3c(c2)OCO3)on1	2.9 (≈ 10.6 µM)
O=C(O)c1ccccc1C(=O)NC1CCCc2ccccc21 (centres undefined)	> 44.3
O=C(CSc1ccccc1C(=O)O)NCc1ccccc1	44 (≈ 146 µM)
CCCCOC(=O)c1ccc(OC(=O)N2CCOCC2)cc1	> 46.1
